Values quoted from earlier work, collected in patent US20220192993A1, “DOSAGE FORMS AND METHODS OF PREPARATION AND USE THEREOF” (Willow Bark Brands, Inc., priority 2019, published 2022).

Test system: brain alpha wave activity
Settings: reported effect, 'testing shows'

CCNC(=O)CC[C@H](N)C(=O)O [L-Theanine]
brain alpha wave activity: L-Theanine increases
